Columns and labels:
[1] = target: T1, QPCT (Homo sapiens, UniProt Q16769); assay: Assay A: biochemical QPCT activity assay (MALDI-TOF MS, CD47 peptide substrate); conditions: Table 3, prior art compounds, read-out: Inhibition of QPCT: IC50
T1 construct: purchased Origine (OriGene) TP700028
How it was run: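 Enzyme and compound pre-incubated 10 min at 24° C in 20 mM Tris pH 7.5 with TCEP, BSA, Tween20, then 40 min with CD47 peptide (10 μM for QPCTL, 20 μM for QPCT). Pyroglutamate product/internal standard ratio by MALDI-TOF MS, normalized to controls; four-parameter logistic fit.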

[2] = tested on: cellular (Ramos) QPCTL activity; conditions: Ramos cells, as disclosed in WO 2024/020517; read-out: Inhibitory activity of cellular (Ramos) QPCTL activity in a FACS assay; cited from earlier work
[3] = Assay C: permeability in CACO-2 cells; assay type: in vitro ADME; conditions: human, Caco-2, pH 7.2
How it was run: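 Caco-2 monolayers were grown 10–25 days on porous filter inserts. Compound was applied to the apical or basolateral donor side for A-B or B-A transport (3 filters), and the receiver was sampled for up to 2 h. Quantitation was by HPLC-MS/MS or scintillation; efflux ratio = B-A/A-B permeability.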

[4] = tested on: SIRPα signalling induced by A549 cells; assay: Assay B: SIRPα signalling assay using A549 cells; assay type: cell-based; conditions: Homo sapiens, Table 5, prior art compounds, read-out: Inhibition of SIRPα signalling induced by A549 cells: IC50
How it was run: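 Raji or A549 cells (5000/well) were each incubated with serially diluted compound for 48 h at 37 °C. Jurkat PathHunter SIRPαV1 reporter cells (15000/well) were then added for 5 h. Beta-galactosidase luminescence gave IC50 via a 4-parameter sigmoidal fit.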

T1 sequence (Q16769 29-361): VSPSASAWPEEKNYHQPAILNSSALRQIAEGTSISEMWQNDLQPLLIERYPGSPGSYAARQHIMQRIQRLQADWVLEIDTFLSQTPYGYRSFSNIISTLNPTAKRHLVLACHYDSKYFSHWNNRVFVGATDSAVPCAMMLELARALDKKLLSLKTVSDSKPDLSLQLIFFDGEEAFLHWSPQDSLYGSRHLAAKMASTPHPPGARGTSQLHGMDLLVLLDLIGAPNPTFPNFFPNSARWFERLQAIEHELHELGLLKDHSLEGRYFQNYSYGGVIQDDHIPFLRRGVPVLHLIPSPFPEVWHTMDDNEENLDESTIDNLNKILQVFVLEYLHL

IC50 [1]: 2 nM
Papp A→B [3]: 0.2 ×10⁻⁶ cm/s
efflux ratio ([3]; read-out: Efflux Ratio): 45.3
IC50 [4]: 56 nM
SMILES: Cn1cnnc1C1CCN(c2c(-c3ccnnc3)ccc(Cl)c2C#N)CC1 [Compound 33, reference compound]
IC50 [2]: < 100 nM
